Assay results as given in US9540338B2, “Substituted cinnamic acid amides for treating pain” (NIPPON ZOKI PHARMACEUTICAL CO., LTD., priority 2012, dated 2017).
Where a name gives a salt, the structure may show the parent alone. Marks after values point to notes of the source that are not given here.

Tests used:
Chung model rat = assay: Analgesic efficacy test (2): Chung model rat, neuropathic pain model (allodynia, von Frey filament); type: in vivo, rats; conditions: mean ± standard error
Procedure: An analgesic efficacy test was conducted using a Chung model rat, a neuropathic pain model. Nine-week old Wistar male rats were previously bred as an experimental animal, and a model rat was then prepared in accordance with the method of Kim and Chung (Pain, 50, 355-363, 1992). Specifically, left L5 spinal nerves of rats were exposed under anesthetization with pentobarbital (40 mg/kg, intraperitoneal administration), and firmly ligated with 5-0 silk yarn at L5 dorsal root ganglion peripheral side. The animals were placed in a transparent acrylic cage of which bottom was wire netted The measurement of allodynia was carried out using von Frey filament (manufactured by North Coast Medical Inc.) and a 50% reaction threshold was calculated according to an up-down method, in accordance with a method of Chaplan et al. (J. Neurosci. Method, 53, 55-63, 1994). The 50% reaction thresholds were measured twice before injury of the spinal nerve, and those animals of which thresholds were outside the standard were removed from the operation of spinal nerve injury. On or after 14 days from the spinal nerve injury, a 50% reaction threshold was measured, and those showing thresholds of 1 g or more and less than 4 g were used as experimental animal. The group was constituted by 7 or 8 rats per group so that an average of a 50% reaction threshold for each group would be nearly even.
A solution or suspension prepared by dissolving or suspending a compound of the present invention in a 0.5% (w/v) aqueous CMC-Na solution was orally administered as a test substance in a single dose. Also, a 0.5% (w/v) aqueous CMC-Na solution was administered in the same manner to the control group for nerve injury. The measurements of allodynia were carried out with the passage of time after administration, and a 50% reaction threshold (mean±standard error) of each group at action peak was calculated. In the test for significance difference, Bartlett's test was carried out in the comparison between multiple groups of the group administered with test substance with the control group for nerve injury. In the case of homoscedasticity, Dunnett's multiple comparison test of parametrics, and in the case of heteroscedasticity, Dunnett's multiple comparison test of non-parametrics were used. In all cases, significance difference was considered to be found at P<0.05 (indicated as “*” in the tables).

[1] = oral 1 mg/kg, measurement point 60 minute (action peak)
[2] = oral 10 mg/kg, measurement point 60 minute (action peak)
[3] = oral 1 mg/kg, measurement point 90 minute (action peak)
[4] = oral 10 mg/kg, measurement point 90 minute (action peak)
[5] = oral 1 mg/kg, measurement point 30 minute (action peak)
[6] = oral 10 mg/kg, measurement point 30 minute (action peak)

Row | Compound | melting point [°C] | other results
1 | CN(C)CCCCNC(=O)/C=C/c1ccccc1F.Cl | 107 to 108 | 
2 | Cl.O=C(/C=C/c1ccc(C(=O)O)cc1)NCCn1ccnc1 | 237 to 238 | 
3 | Cl.O=C(/C=C/c1ccccc1F)NCCc1cccnc1 | 116 to 117 | 
4 | Cl.O=C(/C=C/c1ccccc1F)NCCCN1CCCCC1 | 166 to 167 | 
5 | O=C(/C=C/c1ccccc1F)NCCc1ccccn1 (as salt: hydrochloride) [Compound 9, (E)-3-(2-Fluorophenyl)-N-[2-(2-pyridyl)ethyl]-2-propenamide hydrochloride] | 86 to 87 | 
6 | CN1CCN(CCCNC(=O)/C=C/c2ccccc2F)CC1 (as salt: hydrochloride) [Compound 15, (E)-3-(2-Fluorophenyl)-N-[3-(4-methylpiperazin-1-yl)propyl]-2-propenamide dihydrochloride] | 133 to 138 | 
7 | O=C(/C=C/c1ccccc1F)NCCN1CCNCC1 (as salt: hydrochloride) [Compound 16, (E)-3-(2-Fluorophenyl)-N-[2-(piperazin-1-yl)ethyl]-2-propenamide dihydrochloride] | 212 to 213 | 
8 | O=C(/C=C/c1ccccc1C(=O)O)NCCn1ccnc1 [Compound 47, (E)-3-(2-Carboxyphenyl)-N-[(2-imidazol-1-yl)ethyl]-2-propenamide] |  | 50% Reaction Threshold, Group Administered with Test Substance, After Administration (Chung model rat; [1]): 10.58 ± 1.74* g; 50% Reaction Threshold, Group Administered with Test Substance, After Administration (Chung model rat; [2]): 13.58 ± 0.67* g
9 | Cl.O=C(/C=C/c1ccccc1C(F)(F)F)NCCCN1CCOCC1 | 197 to 198 | 
10 | C/C(=C\c1ccccc1F)C(=O)NCCCN1CC[S+]([O-])CC1.Cl | 180 to 181 | 
11 | O=C(/C=C/c1ccccc1F)NCCn1cncn1 [Compound 39, (E)-3-(2-Fluorophenyl)-N-[2-([1,2,4]triazol-1-yl)ethyl]-2-propenamide dihydrochloride] |  | 50% Reaction Threshold, Group Administered with Test Substance, After Administration (Chung model rat; [3]): 3.55 ± 0.59 g; 50% Reaction Threshold, Group Administered with Test Substance, After Administration (Chung model rat; [4]): 4.05 ± 0.48* g
12 | O=C(/C=C/c1ccccc1F)Nc1cccc(-c2ccn[nH]2)c1 [Compound 52, (E)-3-(2-Fluorophenyl)-N-[3-(2H-pyrazol-3-yl)phenyl]-2-propenamide] |  | 50% Reaction Threshold, Group Administered with Test Substance, After Administration (Chung model rat; [5]): 7.42 ± 1.14* g; 50% Reaction Threshold, Group Administered with Test Substance, After Administration (Chung model rat; [6]): 9.12 ± 2.00* g
13 | Cl.O=C(/C=C/c1ccccc1F)NCCCNC1CCCCC1 | 227 to 228 | 
14 | Cl.O=C(/C=C/c1cccc(C(=O)O)c1)NCCn1ccnc1 | 195 to 197 | 
15 | Cl.O=C(/C=C/c1ccccc1F)NCCCn1ccnc1 [Compound 45, (E)-3-(2-Fluorophenyl)-N-[3-(imidazol-1-yl)propyl]-2-propenamide hydrochloride] |  | 50% Reaction Threshold, Group Administered with Test Substance, After Administration (Chung model rat; [3]): 8.81 ± 1.05* g; 50% Reaction Threshold, Group Administered with Test Substance, After Administration (Chung model rat; [4]): 12.23 ± 1.10* g
16 | O=C(/C=C/c1ccccc1F)NCCCN1CCNCC1 (as salt: hydrochloride) | 143 to 144 | 

Further lines, with some results ahead:

Row | melting point [°C] | Compound | other results
17 | 163 to 164 | O=C(/C=C/c1ccccc1F)NCCn1ccnc1-c1ccccc1 [Compound 44, (E)-3-(2-Fluorophenyl)-N-[2-(2-phenylimidazol-1-yl)ethyl]-2-propenamide] | 
18 | 71 to 72 | O=C(/C=C/c1cc(F)ccc1F)NCCCN1CCOCC1 [Compound 29, (E)-3-(2,5-Difluorophenyl)-N-(3-morpholinopropyl)-2-propenamide] | 50% Reaction Threshold, Group Administered with Test Substance, After Administration (Chung model rat; [1]): 5.10 ± 0.42 g; 50% Reaction Threshold, Group Administered with Test Substance, After Administration (Chung model rat; [2]): 10.51 ± 1.15* g
19 | 182 to 183 | Cl.O=C(/C=C/c1ccccc1F)NCCCN1CC[S+]([O-])CC1 [Compound 68, (E)-3-(2-Fluorophenyl)-N-[3-(1-oxo-1,4-thiazinan-4-yl)propyl]-2-propenamide hydrochloride] | 50% Reaction Threshold, Group Administered with Test Substance, After Administration (Chung model rat; [3]): 9.04 ± 1.17* g; 50% Reaction Threshold, Group Administered with Test Substance, After Administration (Chung model rat; [4]): 11.25 ± 0.94* g
20 | 78 to 79 | C/C(=C\c1ccc(F)cc1)C(=O)NCCCN1CCOCC1 [Compound 46, (E)-3-(4-Fluorophenyl)-2-methyl-N-(3-morpholinopropyl)-2-propenamide] | 50% Reaction Threshold, Group Administered with Test Substance, After Administration (Chung model rat; [5]): 7.51 ± 1.60* g; 50% Reaction Threshold, Group Administered with Test Substance, After Administration (Chung model rat; [6]): 8.70 ± 1.43* g
21 | 127 to 128 | O=C(/C=C/c1ccc(F)c(F)c1)NCCCN1CCOCC1 [Compound 31, (E)-3-(3,4-Difluorophenyl)-N-(3-morpholinopropyl)-2-propenamide] | 
22 | 123 to 124 | COc1ccc(CCNC(=O)/C=C/c2ccccc2F)cc1 [Compound 37, (E)-3-(2-Fluorophenyl)-N-[2-(4-methoxyphenyl)ethyl]-2-propenamide] | 
23 | 83 to 84 | O=C(/C=C/c1ccccc1F)NCCN1CCCC1 [Compound 35, (E)-3-(2-Fluorophenyl)-N-[2-(pyrrolidin-1-yl)ethyl]-2-propenamide] | 
24 | 80 to 81 | O=C(/C=C/c1cccc(F)c1)NCCCN1CCOCC1 [Compound 25, (E)-3-(3-Fluorophenyl)-N-(3-morpholinopropyl)-2-propenamide] | 50% Reaction Threshold, Group Administered with Test Substance, After Administration (Chung model rat; [1]): 8.17 ± 1.09* g; 50% Reaction Threshold, Group Administered with Test Substance, After Administration (Chung model rat; [2]): 9.68 ± 1.20* g
25 | 143 to 145 | O=C(/C=C/c1ccccc1F)NCCn1cnc2ccccc21 [Compound 22, (E)-N-[2-(Benzoimidazol-1-yl)ethyl]-3-(2-fluorophenyl)-2-propenamide] | 
26 | 80 to 81 | O=C(/C=C/c1ccccc1F)NCCN1CCCCCC1 [Compound 36, (E)-N-[(2-Azepan-1-yl)ethyl]-3-(2-fluorophenyl)-2-propenamide] | 
27 | 124 to 126 | O=C(/C=C/c1ccccc1F)NCCn1cccn1 [Compound 38, (E)-3-(2-Fluorophenyl)-N-[2-(pyrazol-1-yl)ethyl]-2-propenamide] | 50% Reaction Threshold, Group Administered with Test Substance, After Administration (Chung model rat; [3]): 2.74 ± 0.23 g; 50% Reaction Threshold, Group Administered with Test Substance, After Administration (Chung model rat; [4]): 4.06 ± 0.52* g
28 | 154 to 155 | O=C(/C=C/c1ccccc1F)NCc1cccc(N2CCSCC2)c1 [Compound 69, (E)-3-(2-Fluorophenyl)-N-[(3-thiomorpholinophenyl)methyl]-2-propenamide] | 50% Reaction Threshold, Group Administered with Test Substance, After Administration (Chung model rat; [1]): 3.68 ± 0.40* g; 50% Reaction Threshold, Group Administered with Test Substance, After Administration (Chung model rat; [2]): 4.35 ± 0.51* g
29 | 110 to 111 | N#C/C(=C\c1ccc(F)cc1)C(=O)NCCCN1CCOCC1 [Compound 58, (E)-2-Cyano-3-(4-fluorophenyl)-N-(3-morpholinopropyl)-2-propenamide] | 
30 | 204 to 206 | O=C(/C=C/c1ccccc1F)Nc1ccc(-c2ccno2)cc1 [Compound 53, (E)-3-(2-Fluorophenyl)-N-[4-(isoxazol-5-yl)phenyl]-2-propenamide] | 
31 | 96 to 98 | O=C(/C=C/c1ccccc1F)NCCn1ccc2ccccc21 [Compound 41, (E)-3-(2-Fluorophenyl)-N-[2-(indol-1-yl)ethyl]-2-propenamide] | 
32 | 128 to 129 | Nc1ccccc1CCNC(=O)/C=C/c1ccccc1F [Compound 19, (E)-N-[2-(2-Aminophenyl)ethyl]-3-(2-fluorophenyl)-2-propenamide] | 
33 | 97 to 99 | O=C(/C=C/c1cccc(F)c1F)NCCCN1CCOCC1 [Compound 27, (E)-3-(2,3-Difluorophenyl)-N-(3-morpholinopropyl)-2-propenamide] | 
34 | 193 to 195 | O=C(O)CCNC(=O)/C=C/c1ccccc1F [Compound 66, 3-{[(E)-3-(2-Fluorophenyl)-2-propenoyl]amino}propanoic acid] | 
35 | 116 to 118 | O=C(/C=C/c1ccccc1F)Nc1ccc(-c2ccn[nH]2)cc1 [Compound 51, (E)-3-(2-Fluorophenyl)-N-[4-(2H-pyrazol-3-yl)phenyl]-2-propenamide] | 
36 | 102 to 103 | O=C(/C=C/c1ccc(C(F)(F)F)cc1F)NCCCN1CCOCC1 [Compound 32, (E)-3-(2-Fluoro-4-trifluoromethylphenyl)-N-(3-morpholinopropyl)-2-propenamide] | 
37 | 75 to 76 | O=C(/C=C/c1c(F)cccc1F)NCCCN1CCOCC1 [Compound 30, (E)-3-(2,6-Difluorophenyl)-N-(3-morpholinopropyl)-2-propenamide] | 
